PMC9130746, “In Vitro Activity of Peptide Antibiotics in Combination With Other Antimicrobials on Extensively Drug-Resistant Acinetobacter baumannii in the Planktonic and Biofilm Cell” (Frontiers in Pharmacology, 2022)
≈ marks a conversion by molar mass, not a printed value. Where two headings read alike, the source gives them in different places. Bridge positions count the residues as written; N and C are the ends. Square brackets hold non-standard residues; d marks the D form. Peptide text beside a SMILES is read from it. * marks the point of attachment. Ileψ(thiazoline)Cys = CC[C@H](C)[C@H](N)C1=N[C@H](C(=O)*)CS1; dOrn = NCCC[C@@H](N)C(=O)O

Experiments:
Assay type in all cases: cell-based, Acinetobacter baumannii
[1] = tested on: extensively drug-resistant A. baumannii clinical isolates (biofilm cell)
Text: (§1) Nine XDRAB strains were isolated from clinical specimens such as the septum, urine, or respiratory lavage fluid of patients from the respiratory intensive care unit, intensive care unit, the cardiothoracic surgery department, and the neurology department at the First Affiliated Hospital of Chengdu Medical College during the period from 2018 to 2020 (Chengdu, Sichuan, China). In addition, A. baumannii ATCC 19606, Staphylococcus aureus ATCC 29213, and Escherichia coli ATCC 25922 were used as quality control strains in antimicrobial susceptibility testing (AST) and obtained from the American Type Culture Collection (ATCC, Manassas, VA, United States).
The minimum biofilm inhibitory concentrations (MBICs) were detected using a previous study protocol ([Kart et al., 2021]) for the antibacterial agents and peptide antibiotics for A. baumannii in the biofilm cell. First, bacterial cells were inoculated in Luria–Bertani agar medium at 37°C for 16–20 h. Next, the bacterial monoclones were resuspended in saline (0.9% sodium chloride) to adjust the bacterial content to reach the 0.5 McFarland turbidity standard. Then, 190 µl TSB and 10 µl bacterial resuspension were mixed in a 96-well plate. After incubating at 37°C for 24 h, the medium was aspirated, and 200 µl PBS was added to wash three times. Finally, 190 μl MH broth medium and 10 µl corresponding antibiotics were added into 96-well plate (NEST TC, 701001, www.cell-nest.com). The optical density was measured at OD600 after incubating for 16–20 h at 37°C.

[2] = tested on: extensively drug-resistant A. baumannii clinical isolates (planktonic cell); assay: microbe, parasite or virus in culture
Text: as §1
The minimum inhibitory concentrations (MICs) were determined by the broth microdilution method for the antibacterial agents and peptide antibiotics for A. baumannii based on the guidelines provided by the Clinical and Laboratory Standards Institute (CLSI) ([Humphries et al., 2021]). Briefly, bacterial cells were inoculated in Luria–Bertani agar medium at 37°C for 16–20 h, and then resuspended in saline (0.9% sodium chloride) to adjust the bacterial content to reach the 0.5 McFarland turbidity standard, followed by a 20-fold dilution. Antimicrobial solutions were prepared according to the CLSI ([Humphries et al., 2021]). Finally, 180 μl CAMHB, 10 µl corresponding antimicrobials, and 10 µl bacterial resuspension were added into 96-well plate (NEST TC, 701001, www.cell-nest.com). The value of OD600 was measured after incubating at 37°C for 16–20 h.

[3] = tested on: extensively drug-resistant A. baumannii isolates (biofilm cell); assay: Checkerboard synergy study in the biofilm cell (FBIC); conditions: in combination with polymyxins
Protocol: The checkerboard method, the fractional inhibitory concentration index (FICI), and the fractional biofilm inhibitory concentration index (FBIC) evaluated the synergistic effects of five peptide antibiotics combined with one of the five antimicrobials in the planktonic and biofilm cells among the nine XDRAB isolates. The planktonic cells were investigated by adding 170 µl of MHB and 10 µl of bacterial suspension (1.5 × 10^8 CFU/ml) into the 96 well plates. It was followed by adding 10 µl of serially diluted peptide antibiotics along the x-axis and antimicrobials along the y-axis. The biofilm cells were studied by cultivating the bacteria to form the biofilm into a 96-well plate (NEST TC, 701001, www.cell-nest.com) and washed with 200 µl of PBS three times. The following steps were consistent with the planktonic study. The value of OD600 was measured after incubating at 37°C for 20 h. The FICI and FBIC were evaluated as follows: Synergy between the two drugs was defined as either a FICI or an FBIC of ≤0.5, >0.5–1 for additivity, >1–2 for indifference, and >2 for antagonism ([Kim et al., 2015]; [Peng et al., 2020]; [Lin et al., 2021]).

[4] = isolate AB1, 24 h biofilm in TSB, then MH broth with drug 16–20 h 37°C, OD600
[5] = isolate AB2, 24 h biofilm in TSB, then MH broth with drug 16–20 h 37°C, OD600
[6] = isolate AB3, 24 h biofilm in TSB, then MH broth with drug 16–20 h 37°C, OD600
[7] = isolate AB4, 24 h biofilm in TSB, then MH broth with drug 16–20 h 37°C, OD600
[8] = isolate AB5, 24 h biofilm in TSB, then MH broth with drug 16–20 h 37°C, OD600
[9] = isolate AB6, 24 h biofilm in TSB, then MH broth with drug 16–20 h 37°C, OD600
[10] = isolate AB7, 24 h biofilm in TSB, then MH broth with drug 16–20 h 37°C, OD600
[11] = isolate AB8, 24 h biofilm in TSB, then MH broth with drug 16–20 h 37°C, OD600
[12] = isolate AB9, 24 h biofilm in TSB, then MH broth with drug 16–20 h 37°C, OD600
[13] = isolate AB1, planktonic, broth microdilution, CAMHB, 37°C 16–20 h, OD600
[14] = isolate AB2, planktonic, broth microdilution, CAMHB, 37°C 16–20 h, OD600
[15] = isolate AB3, planktonic, broth microdilution, CAMHB, 37°C 16–20 h, OD600
[16] = isolate AB4, planktonic, broth microdilution, CAMHB, 37°C 16–20 h, OD600
[17] = isolate AB5, planktonic, broth microdilution, CAMHB, 37°C 16–20 h, OD600
[18] = isolate AB6, planktonic, broth microdilution, CAMHB, 37°C 16–20 h, OD600
[19] = isolate AB7, planktonic, broth microdilution, CAMHB, 37°C 16–20 h, OD600
[20] = isolate AB8, planktonic, broth microdilution, CAMHB, 37°C 16–20 h, OD600
[21] = isolate AB9, planktonic, broth microdilution, CAMHB, 37°C 16–20 h, OD600
[22] = after XDRAB biofilm formation, nine isolates

Molecule: CN[C@H](CC(C)C)C(=O)N[C@H]1C(=O)N[C@@H](CC(N)=O)C(=O)N[C@H]2C(=O)N[C@H]3C(=O)N[C@H](C(=O)N[C@H](C(=O)O)c4cc(O)cc(O)c4-c4cc3ccc4O)[C@H](O)c3ccc(c(Cl)c3)Oc3cc2cc(c3O[C@@H]2O[C@H](CO)[C@@H](O)[C@H](O)[C@H]2O[C@H]2C[C@](C)(N)[C@H](O)[C@H](C)O2)Oc2ccc(cc2Cl)[C@H]1O [Vancomycin, vancomycin]
- MBIC [1, 4]: 256 µg/mL
- MBIC [1, 5]: 128 µg/mL
- MBIC [1, 6]: 128 µg/mL
- MBIC [1, 7]: 128 µg/mL
- MBIC [1, 8]: 256 µg/mL
- MBIC [1, 9]: 256 µg/mL
- MBIC [1, 10]: 128 µg/mL
- MBIC [1, 11]: 128 µg/mL
- MBIC [1, 12]: 128 µg/mL
- MIC [2, 13]: 64 µg/mL (≈ 44.2 µM)
- MIC [2, 14]: 64 µg/mL (≈ 44.2 µM)
- MIC [2, 15]: 128 µg/mL (≈ 88.3 µM)
- MIC [2, 16]: 64 µg/mL (≈ 44.2 µM)
- MIC [2, 17]: 128 µg/mL (≈ 88.3 µM)
- MIC [2, 18]: 128 µg/mL (≈ 88.3 µM)
- MIC [2, 19]: 128 µg/mL (≈ 88.3 µM)
- MIC [2, 20]: 64 µg/mL (≈ 44.2 µM)
- MIC [2, 21]: 128 µg/mL (≈ 88.3 µM)

Molecule: polymyxin E
- MBIC [1, 4]: 16 µg/mL
- MBIC [1, 5]: 8 µg/mL
- MBIC [1, 6]: 4 µg/mL
- MBIC [1, 7]: 4 µg/mL
- MBIC [1, 8]: 8 µg/mL
- MBIC [1, 9]: 8 µg/mL
- MBIC [1, 10]: 8 µg/mL
- MBIC [1, 11]: 4 µg/mL
- MBIC [1, 12]: 8 µg/mL
- MIC [2, 13]: 2 µg/mL
- MIC [2, 14]: 1 µg/mL
- MIC [2, 15]: 1 µg/mL
- MIC [2, 16]: 2 µg/mL
- MIC [2, 17]: 2 µg/mL
- MIC [2, 18]: 1 µg/mL
- MIC [2, 19]: 2 µg/mL
- MIC [2, 20]: 2 µg/mL
- MIC [2, 21]: 2 µg/mL

Molecule: CC[C@H]1OC(=O)[C@H](C)[C@@H](O[C@H]2C[C@@](C)(OC)[C@@H](O)[C@H](C)O2)[C@H](C)[C@@H](O[C@@H]2O[C@H](C)C[C@H](N(C)C)[C@H]2O)[C@](C)(O)C[C@@H](C)CN(C)[C@H](C)[C@@H](O)[C@]1(C)O [azithromycin]
- MBIC when combined with polymyxins [3]: 128 µg/mL

Molecule: CN(C)c1cc(NC(=O)CNC(C)(C)C)c(O)c2c1C[C@H]1C[C@H]3[C@H](N(C)C)C(O)=C(C(N)=O)C(=O)[C@@]3(O)C(O)=C1C2=O [Tigecycline, tigecycline]
- intermediate rate [1, 22]: 67%
- resistance rate [1, 22]: 22%
- sensitivity rate [1, 22]: 11%
- MIC ([2]; Acinetobacter baumannii, isolate AB1, planktonic, broth microdilution, CAMHB, 37°C 16–20 h, OD600, read-out: MIC): 1 µg/mL (≈ 1.71 µM)
- MIC ([2]; Acinetobacter baumannii, isolate AB2, planktonic, broth microdilution, CAMHB, 37°C 16–20 h, OD600, read-out: MIC): 1 µg/mL (≈ 1.71 µM)
- MIC ([2]; Acinetobacter baumannii, isolate AB3, planktonic, broth microdilution, CAMHB, 37°C 16–20 h, OD600, read-out: MIC): 1 µg/mL (≈ 1.71 µM)
- MIC ([2]; Acinetobacter baumannii, isolate AB4, planktonic, broth microdilution, CAMHB, 37°C 16–20 h, OD600, read-out: MIC): 1 µg/mL (≈ 1.71 µM)
- MIC ([2]; Acinetobacter baumannii, isolate AB5, planktonic, broth microdilution, CAMHB, 37°C 16–20 h, OD600, read-out: MIC): 1 µg/mL (≈ 1.71 µM)
- MIC ([2]; Acinetobacter baumannii, isolate AB6, planktonic, broth microdilution, CAMHB, 37°C 16–20 h, OD600, read-out: MIC): 1 µg/mL (≈ 1.71 µM)
- MIC ([2]; Acinetobacter baumannii, isolate AB7, planktonic, broth microdilution, CAMHB, 37°C 16–20 h, OD600, read-out: MIC): 1 µg/mL (≈ 1.71 µM)
- MIC ([2]; Acinetobacter baumannii, isolate AB8, planktonic, broth microdilution, CAMHB, 37°C 16–20 h, OD600, read-out: MIC): 1 µg/mL (≈ 1.71 µM)
- MIC ([2]; Acinetobacter baumannii, isolate AB9, planktonic, broth microdilution, CAMHB, 37°C 16–20 h, OD600, read-out: MIC): 0.5 µg/mL (≈ 0.854 µM)
- sensitivity rate ([2]; planktonic cell, nine isolates): 100%

Molecule: CC[C@H](C)[C@H](N)C1=N[C@H](C(=O)N[C@@H](CC(C)C)C(=O)N[C@H](CCC(=O)O)C(=O)N[C@H](C(=O)N[C@H]2CCCCNC(=O)[C@H](CC(N)=O)NC(=O)[C@@H](CC(=O)O)NC(=O)[C@H](Cc3cnc[nH]3)NC(=O)[C@@H](Cc3ccccc3)NC(=O)[C@H]([C@@H](C)CC)NC(=O)[C@@H](CCCN)NC2=O)[C@@H](C)CC)CS1 [Bacitracin, bacitracin] ({Ileψ(thiazoline)Cys}-L[dE]IK[dOrn]I[dF]H[dD]N; lactam 4-C (inferred); N-terminus assumed)
- MBIC ([1]; extensively drug-resistant clinical isolates (biofilm cell, 24 h)): 256 µg/mL
- MIC [2]: 64 µg/mL (≈ 45 µM)
- MIC [2, 15]: 128 µg/mL (≈ 90 µM)
- MIC [2, 16]: 128 µg/mL (≈ 90 µM)
- MIC [2, 17]: 128 µg/mL (≈ 90 µM)
- MIC [2, 18]: 128 µg/mL (≈ 90 µM)
- MIC [2, 20]: 128 µg/mL (≈ 90 µM)
- MIC [2, 21]: 128 µg/mL (≈ 90 µM)
